pIC50, pKi: −log10 of the molar value. “And” between values parts separate entries of the source, which are not always exact repeats. Equal values may be shown once. Read-outs that look alike come from different tables or passages of the source.
Tests used:
rat α-thrombin = molecular target: T1, rat α-thrombin (Rattus norvegicus, UniProt P18292); experiment: Protease inhibition, Ki for rat α-thrombin (fluorogenic substrate Z-Gly-Gly-Arg-AMC); type: biochemical; conditions: for Rat alpha thrombin inhibition, slope normalized to DMSO: replicates R1-R3
T1 construct: rat α-thrombin (Molecular Innovations) were used at final concentrations of 2 nM and 3 nM; purchased Molecular Innovations
Procedure, shortened: (§1)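 Inhibition was measured as AMC fluorescence from 50 μM substrate, monitored for 30 min at 25 °C, relative to a peptide-free control. Human and rat enzymes were present at 2 nM and 3 nM final, respectively, in 50 mM Tris-HCl pH 7.4, 150 mM NaCl, 10 mM MgCl2, 1 mM CaCl2. Ki derives from fitted IC50 via Cheng–Prusoff.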

human α-thrombin = human α-thrombin (Homo sapiens, UniProt P00734); experiment: Protease inhibition, Ki for human α-thrombin (fluorogenic substrate Z-Gly-Gly-Arg-AMC); type: biochemical; conditions: for Human alpha thrombin inhibition, slope normalized to DMSO: replicates R1-R3
Procedure, shortened: as §1

[1] = Passive artificial membrane permeability (PAMPA);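 as to Permeability% Average: top well sample relative to theoretical equilibrium sample by TIC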
[2] = peptide concentration 1.00E+02 uM
[3] = peptide concentration 1.19E-05 uM
[4] = peptide concentration 1.22E-02 uM
[5] = peptide concentration 1.25E+01 uM
[6] = peptide concentration 1.53E-03 uM
[7] = peptide concentration 1.56E+00 uM
[8] = peptide concentration 1.91E-04 uM
[9] = peptide concentration 1.95E-01 uM
[10] = peptide concentration 2.38E-05 uM
[11] = peptide concentration 2.44E-02 uM
[12] = peptide concentration 2.50E+01 uM
[13] = peptide concentration 3.05E-03 uM
[14] = peptide concentration 3.12E+00 uM
[15] = peptide concentration 3.81E-04 uM
[16] = peptide concentration 3.91E-01 uM
[17] = peptide concentration 4.77E-05 uM
[18] = peptide concentration 4.88E-02 uM
[19] = peptide concentration 5.00E+01 uM
[20] = peptide concentration 6.10E-03 uM
[21] = peptide concentration 6.25E+00 uM
[22] = peptide concentration 7.63E-04 uM
[23] = peptide concentration 7.81E-01 uM
[24] = peptide concentration 9.54E-05 uM
[25] = peptide concentration 9.77E-02 uM

## O=C1C[C@H]2CCCN2C(=O)[C@H](Cc2ccccc2)NC(=O)[C@@H](NC(=O)c2ccc(Cl)s2)CCCC=CCCCCN1 [compound 44]
Rat α-thrombin; average of R1-R3, read-out: Rat alpha thrombin inhibition, Ki Average
  pKi: 6.60
Rat α-thrombin; [2]
  Rat alpha thrombin inhibition, slope normalized to DMSO: 7.5 and 5.2 and 7.4
Rat α-thrombin; [3]
  Rat alpha thrombin inhibition, slope normalized to DMSO: 101.0 and 99.4 and 101.8
Rat α-thrombin; [4]
  Rat alpha thrombin inhibition, slope normalized to DMSO: 100.6 and 96.9 and 105.9
Rat α-thrombin; [5]
  Rat alpha thrombin inhibition, slope normalized to DMSO: 11.6 and 13.6 and 8.8
Rat α-thrombin; [6]
  Rat alpha thrombin inhibition, slope normalized to DMSO: 110.9 and 102.8 and 91.9
Rat α-thrombin; [7]
  Rat alpha thrombin inhibition, slope normalized to DMSO: 29.5 and 31.9 and 33.8
Rat α-thrombin; [8]
  Rat alpha thrombin inhibition, slope normalized to DMSO: 101.7 (2×) and 104.1
Rat α-thrombin; [9]
  Rat alpha thrombin inhibition, slope normalized to DMSO: 57.9 and 68.0 and 74.9
Rat α-thrombin; [10]
  Rat alpha thrombin inhibition, slope normalized to DMSO: 95.3 and 93.1 and 98.0
Rat α-thrombin; [11]
  Rat alpha thrombin inhibition, slope normalized to DMSO: 87.6 and 90.4 and 103.1
Rat α-thrombin; [12]
  Rat alpha thrombin inhibition, slope normalized to DMSO: 10.8 and 13.8 and 2.6
Rat α-thrombin; [13]
  Rat alpha thrombin inhibition, slope normalized to DMSO: 84.4 and 99.6 and 89.5
Rat α-thrombin; [14]
  Rat alpha thrombin inhibition, slope normalized to DMSO: 19.8 and 21.4 and 23.1
Rat α-thrombin; [15]
  Rat alpha thrombin inhibition, slope normalized to DMSO: 100.0 and 99.2 and 101.2
Rat α-thrombin; [16]
  Rat alpha thrombin inhibition, slope normalized to DMSO: 59.7 and 45.3 and 63.3
Rat α-thrombin; [17]
  Rat alpha thrombin inhibition, slope normalized to DMSO: 96.9 and 93.8 and 94.4
Rat α-thrombin; [18]
  Rat alpha thrombin inhibition, slope normalized to DMSO: 85.6 and 100.2 and 83.3
Rat α-thrombin; [19]
  Rat alpha thrombin inhibition, slope normalized to DMSO: 7.6 and 10.7 and 9.3
Rat α-thrombin; [20]
  Rat alpha thrombin inhibition, slope normalized to DMSO: 100.9 and 96.3 and 102.1
Rat α-thrombin; [21]
  Rat alpha thrombin inhibition, slope normalized to DMSO: 12.6 and 18.3 and 16.4
Rat α-thrombin; [22]
  Rat alpha thrombin inhibition, slope normalized to DMSO: 96.9 and 104.7 and 92.6
Rat α-thrombin; [23]
  Rat alpha thrombin inhibition, slope normalized to DMSO: 48.7 and 32.2 and 42.2
Rat α-thrombin; [24]
  Rat alpha thrombin inhibition, slope normalized to DMSO: 95.8 and 96.9 and 102.0
Rat α-thrombin; [25]
  Rat alpha thrombin inhibition, slope normalized to DMSO: 78.0 and 74.1 and 90.2
Rat α-thrombin; single replicates R1-R3, read-out: Rat alpha thrombin inhibition, IC50
  pIC50: 6.35 and 6.51 and 6.22
Rat α-thrombin; single replicates R1-R3, read-out: Rat alpha thrombin inhibition, Ki
  Ki: 250 nM (2×) and 171 nM (2×) and 335 nM (2×)
Human α-thrombin; average of R1-R3, read-out: Human alpha thrombin inhibition, Ki Average
  pKi: 5.94
Human α-thrombin; [2]
  Human alpha thrombin inhibition, slope normalized to DMSO: 21.2 and 22.5 and 13.5
Human α-thrombin; [3]
  Human alpha thrombin inhibition, slope normalized to DMSO: 107.9 and 108.1 and 100.7
Human α-thrombin; [4]
  Human alpha thrombin inhibition, slope normalized to DMSO: 45.0 and 106.0 and 79.1
Human α-thrombin; [5]
  Human alpha thrombin inhibition, slope normalized to DMSO: 20.5 and 29.2 and 28.2
Human α-thrombin; [6]
  Human alpha thrombin inhibition, slope normalized to DMSO: 70.8 and 98.2 and 101.6
Human α-thrombin; [7]
  Human alpha thrombin inhibition, slope normalized to DMSO: 57.8 and 72.9 and 62.5
Human α-thrombin; [8]
  Human alpha thrombin inhibition, slope normalized to DMSO: 100.2 and 106.6 and 100.4
Human α-thrombin; [9]
  Human alpha thrombin inhibition, slope normalized to DMSO: 100.6 and 90.9 and 89.3
Human α-thrombin; [10]
  Human alpha thrombin inhibition, slope normalized to DMSO: 109.7 and 103.6 and 106.2
Human α-thrombin; [11]
  Human alpha thrombin inhibition, slope normalized to DMSO: 86.3 and 104.2 and 79.8
Human α-thrombin; [12]
  Human alpha thrombin inhibition, slope normalized to DMSO: 13.8 and 27.1 and 20.7
Human α-thrombin; [13]
  Human alpha thrombin inhibition, slope normalized to DMSO: 101.3 and 97.0 and 101.4
Human α-thrombin; [14]
  Human alpha thrombin inhibition, slope normalized to DMSO: 19.7 and 40.6 and 23.4
Human α-thrombin; [15]
  Human alpha thrombin inhibition, slope normalized to DMSO: 71.5 and 115.8 and 100.2
Human α-thrombin; [16]
  Human alpha thrombin inhibition, slope normalized to DMSO: 64.9 and 85.6 and 86.8
Human α-thrombin; [17]
  Human alpha thrombin inhibition, slope normalized to DMSO: 107.4 and 99.0 and 99.6
Human α-thrombin; [18]
  Human alpha thrombin inhibition, slope normalized to DMSO: 103.0 and 102.1 and 95.7
Human α-thrombin; [19]
  Human alpha thrombin inhibition, slope normalized to DMSO: 20.6 and 21.0 and 15.4
Human α-thrombin; [20]
  Human alpha thrombin inhibition, slope normalized to DMSO: 86.7 and 105.1 and 95.4
Human α-thrombin; [21]
  Human alpha thrombin inhibition, slope normalized to DMSO: 41.3 and 33.5 and 28.3
Human α-thrombin; [22]
  Human alpha thrombin inhibition, slope normalized to DMSO: 100.0 and 108.8 and 108.6
Human α-thrombin; [23]
  Human alpha thrombin inhibition, slope normalized to DMSO: 74.4 and 82.4 and 81.1
Human α-thrombin; [24]
  Human alpha thrombin inhibition, slope normalized to DMSO: 104.7 and 102.3 and 88.7
Human α-thrombin; [25]
  Human alpha thrombin inhibition, slope normalized to DMSO: 98.8 and 95.6 and 95.8
Human α-thrombin; single replicates R1-R3, read-out: Human alpha thrombin inhibition, IC50
  pIC50: 5.89 and 5.78 and 5.81
Human α-thrombin; single replicates R1-R3, read-out: Human alpha thrombin inhibition, Ki
  Ki: 1 µM (2×) and 1.29 µM (2×) and 1.18 µM (2×)
[1]; 50 μM, 12–18 h, acceptor concentration relative to equilibrium
  PAMPA permeability: % permeability: 48 ± 19%
[1]; 50 μM, 13 h (Fig. 5d)
  Permeability% (single replicates R1–R3): 26.09% and 53.35% and 63.35%
  Permeability% Average: 47.6%
[1]; PAMPA, pH 7.4
  Papp at 50 μM: 5.62 ×10⁻⁶ cm/s

Reference: article PMC11062899, “De novo development of small cyclic peptides that are orally bioavailable” (Nature Chemical Biology, 2023)
